In patent publication US4349546A, “D-Allose derivative and preparation method therefor” (Wakamoto Pharmaceutical Co., Ltd., priority 1980, dated 1982):

Assays:
[1] = test system: tumor; details: background statement; cited from earlier work
[2] = test system: early stage encephalophyma, melanoma, lymphoma; details: background statement; cited from earlier work
[3] = test system: Peripheral leukocyte count; test: Effects on peripheral leukocyte count (Test Example 6); type: in vivo, DDY mice
Source text: Comparison of effects of CNUA and Me-CCNU* on peripheral leukocyte count:
Six-week old DDY mice each weighing 22±1 g; one group comprising 5 male mice.
CNUA and Me-CCNU were given intraperitoneally on the first day. The, blood was drawn from a tail vein at time intervals to determine the leukocyte count. The samples were used in the form of a solution in an isotonic sodium chloride solution.

O=NN(CCCl)C(=O)N[C@H]1C(O)O[C@H](CO)[C@@H](O)[C@@H]1O (stereo partly drawn) [chlorozotocin]
antitumor effects [1]: exhibit antitumor effects

O=NN(CCCl)C(=O)NCCCl [BCNU, 1,3-bis-(2-chloroethyl)-1-nitrosourea]
effectiveness against tumors [2]: effective against early stage encephalophyma, melanoma, lymphoma

CN(N=O)C(=O)N[C@H]1C(O)O[C@H](CO)[C@@H](O)[C@@H]1O (stereo partly drawn) [streptozotocin]
antitumor effects [1]: exhibit antitumor effects

C[C@H]1CC[C@H](NC(=O)N(CCCl)N=O)CC1 [Me-CCNU, 1-(2-chloroethyl)-3-(trans-4-methylcyclohexyl)-1-nitrosourea, reference compound]
Peripheral leukocyte count after the administration ([3]; 20 mg/kg ip, 2 day): 55.0 % based on the control
Peripheral leukocyte count after the administration ([3]; 20 mg/kg ip, 4 day): 53.3 % based on the control
Peripheral leukocyte count after the administration ([3]; 20 mg/kg ip, 7 day): 50.2 % based on the control
Peripheral leukocyte count after the administration ([3]; 20 mg/kg ip, 10 day): 59.5 % based on the control
Peripheral leukocyte count after the administration ([3]; 20 mg/kg ip, 14 day): 145 % based on the control
Peripheral leukocyte count after the administration ([3]; 40 mg/kg ip, 2 day): 56.0 % based on the control
Peripheral leukocyte count after the administration ([3]; 40 mg/kg ip, 4 day): 36.5 % based on the control
Peripheral leukocyte count after the administration ([3]; 40 mg/kg ip, 7 day): 34.0 % based on the control
Peripheral leukocyte count after the administration ([3]; 40 mg/kg ip, 10 day): 40.7 % based on the control
Peripheral leukocyte count after the administration ([3]; 40 mg/kg ip, 14 day): 78.1 % based on the control
effectiveness against tumors [2]: effective against early stage encephalophyma, melanoma, lymphoma

O=NN(CCCl)C(=O)NC1CCCCC1 [CCNU, 1-(2-chloroethyl)-3-cyclohexyl-1-nitrosourea]
effectiveness against tumors [2]: effective against early stage encephalophyma, melanoma, lymphoma
